Measured values from ChEMBL document CHEMBL1781988, “Quinolizidinyl derivatives of bi- and tricyclic systems as potent inhibitors of acetyl- and butyrylcholinesterase with potential in Alzheimer's disease” (Eur J Med Chem, 2011).

Legend:
[1] = Selectivity index, ratio of IC50 for bovine erythrocyte AChE to IC50 for Equine serum BChE
Acetylcholinesterase [2] = target: T1, Acetylcholinesterase (Bos taurus, UniProt P23795)
T1 sequence (P23795 whole entry): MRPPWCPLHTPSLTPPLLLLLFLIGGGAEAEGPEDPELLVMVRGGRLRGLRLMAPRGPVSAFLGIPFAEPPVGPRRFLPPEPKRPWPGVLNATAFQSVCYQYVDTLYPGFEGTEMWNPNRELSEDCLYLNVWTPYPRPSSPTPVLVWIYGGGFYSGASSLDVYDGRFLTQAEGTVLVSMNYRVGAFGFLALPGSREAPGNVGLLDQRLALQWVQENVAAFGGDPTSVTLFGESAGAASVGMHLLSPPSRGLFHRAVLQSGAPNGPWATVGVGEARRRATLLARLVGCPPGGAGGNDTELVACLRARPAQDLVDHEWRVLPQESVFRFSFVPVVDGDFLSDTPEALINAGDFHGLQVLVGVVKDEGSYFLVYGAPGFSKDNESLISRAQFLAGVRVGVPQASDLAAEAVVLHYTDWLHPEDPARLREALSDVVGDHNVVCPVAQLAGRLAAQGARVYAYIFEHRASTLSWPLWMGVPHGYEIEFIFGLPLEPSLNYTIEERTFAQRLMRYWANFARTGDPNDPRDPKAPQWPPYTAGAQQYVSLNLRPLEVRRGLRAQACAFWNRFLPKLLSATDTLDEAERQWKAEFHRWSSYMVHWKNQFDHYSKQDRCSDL
Description: Inhibition of bovine erythrocyte AChE using acetylthiocholine iodide as a substrate after 20 mins by Ellman's assay

Cholinesterase [3] = target: Cholinesterase (Equus caballus, UniProt P81908)
Description: Inhibition of Equine serum BChE using butyrylthiocholine iodide as a substrate after 20 mins by Ellman's assay

[4] = target: Muscarinic acetylcholine receptor; assay: Inhibition of muscarinic receptor in rat brain synaptosomes; type: subcellular
Cholinesterase [5] = target: Cholinesterase (Homo sapiens, UniProt P06276)
Description: Inhibition of human plasma BChE

[6] = target: Cholinesterase (Equus caballus) (UniProt P81908); assay: Inhibition of Equine serum BChE using butyrylthiocholine iodide as a substrate at 10 uM after 20 mins by Ellman's assay
Acetylcholinesterase [7] = target: T2, Acetylcholinesterase (Homo sapiens, UniProt P22303)
Description: Inhibition of human plasma AChE

Acetylcholinesterase [8] = target: T2, Acetylcholinesterase; remark: listed apart in the source
Description: Inhibition of human erythrocytes AChE

T2 sequence (P22303 whole entry): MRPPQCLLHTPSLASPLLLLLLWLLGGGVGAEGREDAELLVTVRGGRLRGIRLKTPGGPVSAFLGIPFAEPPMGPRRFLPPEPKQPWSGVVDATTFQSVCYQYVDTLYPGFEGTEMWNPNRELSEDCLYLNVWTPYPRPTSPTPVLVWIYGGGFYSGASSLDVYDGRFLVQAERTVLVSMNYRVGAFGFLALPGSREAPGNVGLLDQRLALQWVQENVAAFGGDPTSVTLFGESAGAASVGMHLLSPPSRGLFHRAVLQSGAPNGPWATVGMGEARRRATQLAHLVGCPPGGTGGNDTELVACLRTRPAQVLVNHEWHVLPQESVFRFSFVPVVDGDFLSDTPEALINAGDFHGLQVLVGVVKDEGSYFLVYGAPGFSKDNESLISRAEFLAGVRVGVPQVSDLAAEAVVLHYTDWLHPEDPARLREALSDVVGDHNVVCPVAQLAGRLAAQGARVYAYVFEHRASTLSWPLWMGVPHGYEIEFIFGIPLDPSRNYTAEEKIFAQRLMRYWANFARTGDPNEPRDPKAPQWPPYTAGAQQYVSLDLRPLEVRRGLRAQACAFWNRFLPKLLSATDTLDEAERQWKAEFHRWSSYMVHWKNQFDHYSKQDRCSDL
Cholinesterase (Equus caballus, UniProt P81908), sequence (P81908 whole entry): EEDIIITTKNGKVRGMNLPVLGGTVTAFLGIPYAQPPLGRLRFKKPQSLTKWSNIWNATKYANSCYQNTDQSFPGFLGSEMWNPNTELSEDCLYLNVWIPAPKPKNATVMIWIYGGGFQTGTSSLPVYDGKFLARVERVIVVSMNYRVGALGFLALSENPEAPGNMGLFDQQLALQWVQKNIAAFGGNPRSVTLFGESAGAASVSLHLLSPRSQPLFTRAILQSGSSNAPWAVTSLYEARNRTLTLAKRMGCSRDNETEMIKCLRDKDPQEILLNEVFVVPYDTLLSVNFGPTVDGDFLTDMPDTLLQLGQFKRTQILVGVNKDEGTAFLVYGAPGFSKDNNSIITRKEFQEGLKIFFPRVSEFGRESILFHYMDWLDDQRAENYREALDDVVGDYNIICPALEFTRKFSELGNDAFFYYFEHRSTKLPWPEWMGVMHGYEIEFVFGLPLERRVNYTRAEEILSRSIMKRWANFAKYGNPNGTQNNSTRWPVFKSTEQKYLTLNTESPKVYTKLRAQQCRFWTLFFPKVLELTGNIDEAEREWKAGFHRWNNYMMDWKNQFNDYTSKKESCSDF
Cholinesterase (Equus caballus), sequence (P81908 whole entry): as above
Cholinesterase (Homo sapiens, UniProt P06276), sequence (P06276 whole entry, looked up): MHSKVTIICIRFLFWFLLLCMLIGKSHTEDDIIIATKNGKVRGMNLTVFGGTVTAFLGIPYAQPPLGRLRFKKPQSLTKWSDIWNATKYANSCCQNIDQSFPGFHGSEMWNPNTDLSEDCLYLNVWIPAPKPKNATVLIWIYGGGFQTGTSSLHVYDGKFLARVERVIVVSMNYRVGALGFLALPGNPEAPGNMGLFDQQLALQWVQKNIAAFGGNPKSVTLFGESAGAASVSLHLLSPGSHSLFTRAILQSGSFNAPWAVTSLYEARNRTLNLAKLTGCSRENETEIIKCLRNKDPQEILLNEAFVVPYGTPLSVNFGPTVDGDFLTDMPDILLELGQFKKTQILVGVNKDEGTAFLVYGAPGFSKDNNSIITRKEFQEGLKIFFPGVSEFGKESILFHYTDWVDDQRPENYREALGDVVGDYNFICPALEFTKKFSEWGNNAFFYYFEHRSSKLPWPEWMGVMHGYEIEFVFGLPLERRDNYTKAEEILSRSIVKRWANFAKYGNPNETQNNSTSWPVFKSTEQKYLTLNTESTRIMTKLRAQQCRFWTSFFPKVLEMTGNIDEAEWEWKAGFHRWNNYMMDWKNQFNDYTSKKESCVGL

`C1=Cc2ccccc2N(C[C@@H]2CCCN3CCCC[C@H]23)c2ccccc21` showed a Ratio IC50 [1] of 3.8, an IC50 (Acetylcholinesterase [2]) of 8.3 µM and an IC50 (Cholinesterase [3]) of 2200 nM.
`c1ccc2c(c1)[Se]c1ccccc1N2C[C@H]1CCCN2CCCC[C@H]12` gave an IC50 (Cholinesterase [3]) of 870 nM.
Molecule `c1ccc2c(c1)Oc1ccccc1N2C[C@@H]1CCCN2CCCC[C@H]12` has an IC50 (Cholinesterase [3]) of 2200 nM.
`CCN(CC)C(C)C(=O)N1c2ccccc2Sc2ccccc21` (stereo unspecified) showed an IC50 (Cholinesterase [3]) of 840 nM.
For `c1ccc2c(c1)Sc1ccccc1N2C[C@@H]1CCCN2CCCC[C@H]12` [LUPINYLPHENOTHIAZINE], the IC50 [4] was 0.1 µM and the IC50 (Cholinesterase [3]) was 2000 nM.
Work on `CCN(CC)C(C)CN1c2ccccc2Sc2ccccc21` (stereo unspecified) [ETHOPROPAZINE] yielded an IC50 (Cholinesterase [5]) of 300 nM and an IC50 (Cholinesterase [3]) of 720 nM.
With `COc1ccc2nc3cc(Cl)ccc3c(NCCCSC[C@@H]3CCCN4CCCC[C@H]34)c2c1` the Ratio IC50 [1] was 0.32, the IC50 (Acetylcholinesterase [2]) was 0.22 µM and the IC50 (Cholinesterase [3]) was 690 nM.
With `COc1ccc2c(c1)N(C(=O)CSC[C@@H]1CCCN3CCCC[C@H]13)c1ccccc1S2` the IC50 (Cholinesterase [3]) was 1200 nM.
For `c1ccc2c(c1)-c1ccccc1C2C[C@@H]1CCCN2CCCC[C@H]12`, the IC50 (Cholinesterase [3]) was 630 nM.
With `O=C1Nc2cccnc2N(C[C@@H]2CCCN3CCCC[C@H]23)c2ccccc21` the inhibition [6] was 28%.
With `c1ccc2c(c1)CCc1ccccc1N2C[C@@H]1CCCN2CCCC[C@H]12` the IC50 (Cholinesterase [3]) was 2200 nM.
For `c1ccc(C(SC[C@@H]2CCCN3CCCC[C@H]23)c2ccccc2)cc1`, the IC50 (Cholinesterase [3]) was 3300 nM.
`c1ccc(N(C[C@@H]2CCCN3CCCC[C@H]23)c2ccccc2)cc1` gave a Ratio IC50 [1] of 1.1, an IC50 (Acetylcholinesterase [2]) of 8.9 µM and an IC50 (Cholinesterase [3]) of 8100 nM.
In the case of `CCCCCCCNC(=O)Oc1ccc2c(c1)[C@]1(C)CCN(C)[C@@H]1N2C` [EPTASTIGMINE], the IC50 (Acetylcholinesterase [7]) is reported as 22 µM.
Molecule `OC1(C[C@@H]2CCCN3CCCC[C@H]23)c2ccccc2Sc2ccccc21` has an IC50 (Cholinesterase [3]) of 950 nM.
In the case of `CC(C)c1ccc(NC(=O)Oc2ccc3c(c2)[C@]2(C)CCN(CCc4ccccc4)[C@@H]2N3C)cc1`, the IC50 (Acetylcholinesterase [8]) is reported as over 30 µM, the IC50 (Acetylcholinesterase [7]) is reported as over 30 µM and the IC50 (Cholinesterase [5]) is reported as 6 nM.
Molecule `O=C(C[C@@H]1CCCN2CCCC[C@H]12)N1c2ccccc2Sc2ccccc21` [HOMOLUPINANOYLPHENOTHIAZINE] has an IC50 (Cholinesterase [3]) of 3000 nM.
`CN(C)CC(C)(C)c1cccc(OC(=O)NCCCCN2CCOCC2)c1` showed an IC50 (Acetylcholinesterase [8]) of 100 µM, an IC50 (Acetylcholinesterase [7]) of 100 µM and an IC50 (Cholinesterase [5]) of 9 nM.
In the case of `O=c1ccc2cc(OCCCCSC[C@@H]3CCCN4CCCC[C@H]34)ccc2o1`, the Ratio IC50 [1] is reported as 0.28, the IC50 (Acetylcholinesterase [2]) is reported as 1.2 µM and the IC50 (Cholinesterase [3]) is reported as 4300 nM.
With `C[N+]12CCCC[C@@H]1[C@H](CC1c3ccccc3Sc3ccccc31)CCC2` (stereo partly specified) the IC50 (Cholinesterase [3]) was 410 nM.
For `O=C(C[C@H]1CCCN2CCCC[C@H]12)N1c2ccccc2Sc2ccccc21`, the IC50 (Cholinesterase [3]) was 4800 nM.
With `C(=C(c1ccccc1)c1ccccc1)[C@@H]1CCCN2CCCC[C@H]12` the IC50 (Cholinesterase [3]) was 3800 nM.
For `C(=C1c2ccccc2CCc2ccccc21)[C@@H]1CCCN2CCCC[C@H]12`, the IC50 (Cholinesterase [3]) was 4200 nM.
`c1ccc2c(c1)Sc1ccccc1N2C1CN2CCC1CC2` (stereo unspecified) showed an IC50 [4] of 0.1 µM and an IC50 (Cholinesterase [3]) of 3000 nM.
`COc1ccc2nc3cc(Cl)ccc3c(NCCSC[C@@H]3CCCN4CCCC[C@H]34)c2c1` gave a Ratio IC50 [1] of 2.5, an IC50 (Acetylcholinesterase [2]) of 0.84 µM and an IC50 (Cholinesterase [3]) of 340 nM.
For `O=C(CCSC[C@@H]1CCCN2CCCC[C@H]12)N1c2ccccc2Sc2ccccc21`, the IC50 (Cholinesterase [3]) was 750 nM.
In the case of `c1ccc2c(c1)CCc1ccccc1N2CSC[C@@H]1CCCN2CCCC[C@H]12`, the IC50 (Cholinesterase [3]) is reported as 860 nM.
`c1ccc2c(c1)c1ccccc1n2C[C@@H]1CCCN2CCCC[C@H]12` gave an IC50 (Cholinesterase [3]) of 2000 nM.
For `c1ccc2c(c1)[Se]c1ccccc1N2C[C@@H]1CCCN2CCCC[C@H]12`, the IC50 (Cholinesterase [3]) was 1100 nM.
For `c1ccc(C(C[C@@H]2CCCN3CCCC[C@H]23)c2ccccc2)cc1`, the Ratio IC50 [1] was 1.2, the IC50 (Acetylcholinesterase [2]) was 6.7 µM and the IC50 (Cholinesterase [3]) was 5500 nM.
With `O=C(CCCSC[C@@H]1CCCN2CCCC[C@H]12)N1c2ccccc2Sc2ccccc21` the Ratio IC50 [1] was 9.2, the IC50 (Acetylcholinesterase [2]) was 6.8 µM and the IC50 (Cholinesterase [3]) was 740 nM.
In the case of `COc1ccc2nc3cc(Cl)ccc3c(SC[C@@H]3CCCN4CCCC[C@H]34)c2c1`, the IC50 (Cholinesterase [3]) is reported as 4700 nM.
`CN1CCCC(CC2c3ccccc3Sc3ccccc32)C1` (stereo unspecified) [METHIXENE] gave an IC50 (Cholinesterase [3]) of 1600 nM.
`FC(F)(F)c1ccc2c(c1)N(C[C@@H]1CCCN3CCCC[C@H]13)c1ccccc1S2` showed an IC50 (Cholinesterase [3]) of 4000 nM.
For `O=C1Nc2cccnc2N(CSC[C@@H]2CCCN3CCCC[C@H]23)c2ccccc21`, the inhibition [6] was 34%.
With `N#Cc1ccc2c(c1)N(CCCN1CCC(O)CC1)c1ccccc1S2` [PERICIAZINE] the Ratio IC50 [1] was 30, the IC50 (Acetylcholinesterase [2]) was 7 µM and the IC50 (Cholinesterase [3]) was 230 nM.
Molecule `C(=C1c2ccccc2Sc2ccccc21)[C@@H]1CCCN2CCCC[C@H]12` has an IC50 (Cholinesterase [3]) of 930 nM.
`O=c1ccc2cc(OCCCCCSC[C@@H]3CCCN4CCCC[C@H]34)ccc2o1` showed a Ratio IC50 [1] of 0.12, an IC50 (Acetylcholinesterase [2]) of 0.68 µM and an IC50 (Cholinesterase [3]) of 5800 nM.
In the case of `c1ccc2c(c1)-c1ccccc1C2C[C@H]1CCCN2CCCC[C@H]12`, the IC50 (Cholinesterase [3]) is reported as 1100 nM.
Work on `C[N+]12CCCC[C@@H]1[C@H](CN1c3ccccc3Sc3ccccc31)CCC2` (stereo partly specified) yielded an IC50 (Cholinesterase [3]) of 510 nM.
For `O=c1ccc2cc(OCCCNC[C@@H]3CCCN4CCCC[C@H]34)ccc2o1`, the inhibition [6] was 40% and the IC50 (Acetylcholinesterase [2]) was 6.6 µM.
For `CC(SC[C@@H]1CCCN2CCCC[C@H]12)C(=O)N1c2ccccc2Sc2ccccc21` (stereo partly specified), the IC50 (Cholinesterase [3]) was 470 nM.
Molecule `O=C(CCCCSC[C@@H]1CCCN2CCCC[C@H]12)N1c2ccccc2Sc2ccccc21` has a Ratio IC50 [1] of 6.4, an IC50 (Acetylcholinesterase [2]) of 5.7 µM and an IC50 (Cholinesterase [3]) of 890 nM.
For `COc1ccc2nc3cc(Cl)ccc3c(NC[C@@H]3CCCN4CCCC[C@H]34)c2c1`, the Ratio IC50 [1] was 8.4, the IC50 (Acetylcholinesterase [2]) was 7.3 µM and the IC50 (Cholinesterase [3]) was 870 nM.
With `C1=Cc2ccccc2C(=C[C@@H]2CCCN3CCCC[C@H]23)c2ccccc21` the Ratio IC50 [1] was 4.1, the IC50 (Acetylcholinesterase [2]) was 8.3 µM and the IC50 (Cholinesterase [3]) was 2000 nM.
For `O=c1ccc2cc(OCCCSC[C@@H]3CCCN4CCCC[C@H]34)ccc2o1`, the Ratio IC50 [1] was 0.06, the IC50 (Acetylcholinesterase [2]) was 5.4 µM and the IC50 (Cholinesterase [3]) was 5400 nM.
In the case of `c1ccc2c(c1)Cc1ccccc1N2C[C@@H]1CCCN2CCCC[C@H]12`, the IC50 (Cholinesterase [3]) is reported as 1400 nM.
Work on `O=C(CSC[C@@H]1CCCN2CCCC[C@H]12)N1c2ccccc2Sc2ccccc21` yielded an IC50 (Cholinesterase [3]) of 430 nM.
Molecule `c1ccc2c(c1)Sc1ccccc1C2C[C@@H]1CCCN2CCCC[C@H]12` has a Ratio IC50 [1] of 47, an IC50 [4] of 0.1 µM and an IC50 (Acetylcholinesterase [2]) of 7 µM. It also gave an IC50 (Cholinesterase [3]) of 150 nM.
